Results taken from PubChem BioAssay AID1918935 (Molecular Pharmacology Branch, DTP, NCI, 2023).

Test system: 324938-238-R-J1-PDC complex spheroid viability
Assay: Anticancer human tumor 324938-238-R-J1-PDC patient-derived bladder carcinoma cell line growth inhibition
Conditions: for IC50: curve of first compound; for viability, T/C: stronger effect = lower value
Summary of the method: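 Drug combinations with the LSD1 inhibitor iadademstat tested on tumor cells co-cultured as spheroids with endothelial cells and mesenchymal stem cells. Concentrations descended in half-log increments from clinical Cmax or 10 microM.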

[1] = second compound 0.1 µM, first compound 0.0316 µM
[2] = second compound 0.1 µM, first compound 0.1 µM
[3] = second compound 0.1 µM, first compound 0.316 µM
[4] = second compound 0.1 µM, first compound 1 µM
[5] = second compound 0.316 µM, first compound 0.0316 µM
[6] = second compound 0.316 µM, first compound 0.1 µM
[7] = second compound 0.316 µM, first compound 0.316 µM
[8] = second compound 0.316 µM, first compound 1 µM
[9] = second compound 1 µM, first compound 0.0316 µM
[10] = second compound 1 µM, first compound 0.1 µM
[11] = second compound 1 µM, first compound 0.316 µM
[12] = second compound 1 µM, first compound 1 µM
[13] = second compound 3.16 µM, first compound 0.0316 µM
[14] = second compound 3.16 µM, first compound 0.1 µM
[15] = second compound 3.16 µM, first compound 0.316 µM
[16] = second compound 3.16 µM, first compound 1 µM
[17] = second compound 10 µM, first compound 0.0316 µM
[18] = second compound 10 µM, first compound 0.1 µM
[19] = second compound 10 µM, first compound 0.316 µM
[20] = second compound 10 µM, first compound 1 µM
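Further: spheroids also contain HUVEC and human MSCs and agents combined with iadademstat; spheroids exposed to agents for 7 days before readout.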

| SMILES | IC50 (second compound 0.1 µM) [nM] | IC50 (second compound 0.316 µM) [nM] | IC50 (second compound 1 µM) [nM] | IC50 (second compound 3.16 µM) [nM] | IC50 (second compound 10 µM) [nM] | viability, T/C [1] [%] | viability, T/C [2] [%] | viability, T/C [3] [%] | viability, T/C [4] [%] | viability, T/C [5] [%] | viability, T/C [6] [%] | viability, T/C [7] [%] | viability, T/C [8] [%] | viability, T/C [9] [%] | viability, T/C [10] [%] | viability, T/C [11] [%] | viability, T/C [12] [%] | viability, T/C [13] [%] | viability, T/C [14] [%] | viability, T/C [15] [%] | further results |
| --- | --- | --- | --- | --- | --- | --- | --- | --- | --- | --- | --- | --- | --- | --- | --- | --- | --- | --- | --- | --- | --- |
| CC1(C)CCC(CN2CCN(c3ccc(C(=O)NS(=O)(=O)c4ccc(NCC5CCOCC5)c([N+](=O)[O-])c4)c(Oc4cnc5[nH]ccc5c4)c3)CC2)=C(c2ccc(Cl)cc2)C1 + NC1CC1c1ccc(-c2cccc(O)c2)cc1 | 3960 | 4480 | 3960 | 4190 | 2230 | 94.5 | 91.3 | 91.7 | 71 | 72 | 74.9 | 73.2 | 66.5 | 78.4 | 74.6 | 66.4 | 69.8 | 70.9 | 68.3 | 68.1 | viability, T/C (second compound 0.1 µM, first compound 3.16 µM): 61.5%; viability, T/C (second compound 0.1 µM, first compound 10 µM): 17.3%; viability, T/C (second compound 0.316 µM, first compound 3.16 µM): 64.2%; viability, T/C (second compound 0.316 µM, first compound 10 µM): 19.8%; viability, T/C (second compound 1 µM, first compound 3.16 µM): 58.5%; viability, T/C (second compound 1 µM, first compound 10 µM): 19.8%; viability, T/C [16]: 74.3%; viability, T/C (second compound 3.16 µM, first compound 3.16 µM): 59.6%; viability, T/C (second compound 3.16 µM, first compound 10 µM): 20.3%; viability, T/C [17]: 70.5%; viability, T/C [18]: 67.6%; viability, T/C [19]: 66.3%; viability, T/C [20]: 56.8%; viability, T/C (second compound 10 µM, first compound 3.16 µM): 47.9%; viability, T/C (second compound 10 µM, first compound 10 µM): 17.8% |
| COc1cc(Nc2ncc3c(n2)-c2ccc(Cl)cc2C(c2c(F)cccc2OC)=NC3)ccc1C(=O)O + NC1CC1c1ccc(-c2cccc(O)c2)cc1 | 10.7 | 9.45 | 11.9 | 13.7 | 10.8 | 28.1 | 13.9 | 18.2 | 13.9 | 30 | 16 | 15.8 | 14.8 | 26.2 | 16.5 | 17.6 | 15.1 | 30 | 18.1 | 18.8 | viability, T/C (second compound 0.1 µM, first compound 0.00316 µM): 76.1%; viability, T/C (second compound 0.1 µM, first compound 0.01 µM): 51%; viability, T/C (second compound 0.316 µM, first compound 0.00316 µM): 69.5%; viability, T/C (second compound 0.316 µM, first compound 0.01 µM): 48.3%; viability, T/C (second compound 1 µM, first compound 0.00316 µM): 63%; viability, T/C (second compound 1 µM, first compound 0.01 µM): 54.3%; viability, T/C (second compound 3.16 µM, first compound 0.00316 µM): 62.6%; viability, T/C (second compound 3.16 µM, first compound 0.01 µM): 57.6%; viability, T/C [16]: 16.5%; viability, T/C (second compound 10 µM, first compound 0.00316 µM): 57.4%; viability, T/C (second compound 10 µM, first compound 0.01 µM): 51.2%; viability, T/C [17]: 29.5%; viability, T/C [18]: 19.4%; viability, T/C [19]: 19.7%; viability, T/C [20]: 25.8% |
